Among the data in article PMC10309190, “A PI(3,5)P2 reporter reveals PIKfyve activity and dynamics on macropinosomes and phagosomes” (The Journal of Cell Biology, 2023) are Kd, percent of the protein and stoichiometry N values, retold here.

Usually stoichiometry N stands for the number of molecules, sites or subunits per partner or assembly.

For test [1], the target named is T1, 2xPX (2xPX-GFP, tandem repeat of the SnxA PX domain) (Dictyostelium discoideum, UniProt Q54GY1).
T1 construct: gene DDB_G0289833; N-terminal 6xHis and eGFP kept; E. coli BL21; single population, apparent 104 kD by mass photometry
The test is described as follows: microscopy of GFP recruitment to membrane-coated beads, probe titration. The test is classed as binding. The settings on record: 5 mol% phosphoinositide in 95 mol% POPC bilayers on silica beads; 150 mM NaCl, 20 mM Hepes, 0.5 mM TCEP, room temperature; acyl chains not given; avidity of tandem domains; read-out: apparent Kd.

Test [2] deals with T2, SnxA (full-length SnxA-GFP; DDB_G0289833) (Dictyostelium discoideum, UniProt Q54GY1).
T2 construct: full length (PX domain plus coiled coil); N-terminal 6xHis and eGFP kept; E. coli BL21; mostly dimer, apparent 181 kD by mass photometry
T2 sequence (Q54GY1 1-186): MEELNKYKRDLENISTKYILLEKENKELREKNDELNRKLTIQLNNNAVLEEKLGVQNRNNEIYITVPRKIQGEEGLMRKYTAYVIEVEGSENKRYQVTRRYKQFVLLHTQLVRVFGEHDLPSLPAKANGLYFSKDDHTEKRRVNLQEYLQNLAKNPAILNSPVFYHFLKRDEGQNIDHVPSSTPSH
Described as above. The class given is binding. The settings on record: 5 mol% phosphoinositide in 95 mol% POPC bilayers on silica beads; 150 mM NaCl, 20 mM Hepes, 0.5 mM TCEP, room temperature; acyl chains not given; avidity of dimer; read-out: apparent Kd.

Test [3] addresses full-length SnxA, recombinant N-terminal 6xHis and eGFP fusion (Dictyostelium discoideum). Briefly: mass photometry; recombinant GFP fusions diluted to 25-50 nM in 250 mM NaCl, 20 mM Hepes, 0.5 M TCEP (so in the source) immediately before measurement; OneMP mass photometer; monomer to dimer.

In the case of PI(3,5)P2, the Kd was 218 ± 7 nM in test [1] and 187 ± 13 nM in test [2].
On to “full-length SnxA, recombinant N-terminal 6xHis and eGFP fusion (natural protein)”, for which, in test [3], the percent of the protein at the dimer's apparent mass is 85% and the stoichiometry N came out at 2.
